Laboratory results: patent US6410585B1, “Inhibitors of protein tyrosine phosphatase” (priority 1997, dated 2002)
“And” between values parts separate entries of the source, which are not always exact repeats. Identical values can stand only once. Like-named read-outs stand apart in the source and are kept apart here.

Legend:
human PTP1B = target: T1, human PTP1B (Homo sapiens, UniProt P18031); experiment: PTP1B assay, pNPP hydrolysis, assayed exactly as for PTP1; format: biochemical; conditions: for inhibition at 1 µM / inhibition at 10 µM / inhibition at 100 µM: Table 2, read-out: PTP1B Inhib PTP1B. % Inhib; for PTP1B Inhib PTP1B. % Inhib: Table 2
T1 construct: human PTP1B (amino acid residues 1-321); made in house; host or cells: E. coli BL21(DE3)
T1 sequence (P18031 1-321): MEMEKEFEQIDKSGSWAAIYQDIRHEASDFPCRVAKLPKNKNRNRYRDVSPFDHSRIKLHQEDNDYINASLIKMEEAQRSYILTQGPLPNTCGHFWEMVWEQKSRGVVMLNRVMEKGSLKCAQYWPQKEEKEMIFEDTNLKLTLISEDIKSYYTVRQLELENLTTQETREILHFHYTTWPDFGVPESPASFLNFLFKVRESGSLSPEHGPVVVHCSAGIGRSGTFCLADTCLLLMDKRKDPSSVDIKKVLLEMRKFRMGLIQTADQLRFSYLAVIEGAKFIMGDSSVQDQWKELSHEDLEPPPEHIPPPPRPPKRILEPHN
Text: The equivalent construct of human PTP1B (amino acid residues 1-321) (cloned from a human placental library), without the GST tag and thrombin cleavage site, was inserted into a pMB replicon and transformed into E. coli BL21(DE3), a strain containing a chromosomal copy of the gene for T7 RNA polymerase under control of a lacUV5 promoter. Expression of PTP1B was induced with isopropyl thiogalactose and the soluble protein was purified by ion exchange, hydrophobic interaction and gel exclusion chromatography for use in the assay to identify PTP inhibitors.
PTP1 activity is measured using either p-nitrophenol phosphate (pNPP) or a triphosphopeptide (that matches residues 1142 through 1153 of the β-subunit and the insulin receptor) as substrate in a 96-well microtiter plate format. An assay pH of 7.2 is used for standard assays (measured 405=9800 at pH 7.2).
Human PTP1B, which is highly homologous to rat PTP1, was assayed exactly as described above for PTP1.
Standard assays are conducted at room temperature in a total volume of 0.2 ml that contains Hepes buffer (50 mM, pH 7.2), NaCl (50 mM), EDTA (1 mM), DTT (1 mM), bovine serum albumin (1 mg/ml), pNPP (1 mM) and PTP1 (35 ng/ml). Compounds (2 μl of 10 mM solutions) are pipetted into wells of microtiter plates followed by 198 μl of premixed reaction mix (with PTP1 and pNPP added immediately before use). The rate of change in A405 is recorded for 60 min. Two wells on each plate contain DMSO controls and two wells contain sodium orthovanadate (1 mM) which inhibits PTP1-catalyzed hydrolysis of pNPP completely. Data are expressed as percent inhibition relative to the average of the DMSO controls measured on the same microtiter plate.

rat PTP1 = target: T2, rat PTP1 (Rattus norvegicus, UniProt P20417); experiment: PTP1 assay, pNPP hydrolysis (rate of change in A405); format: biochemical; conditions: for inhibition at 1 µM: Conc 1 uM; for inhibition at 1 µM / inhibition at 10 µM / inhibition at 100 µM: pNPP hydrolysis; for inhibition at 10 µM: Conc 10 uM; for inhibition at 100 µM: Conc 100 uM
T2 construct: a C-terminal truncation of rat PTP1 (amino acid residues 1-322); GST (N, cleaved yes); made in house; host or cells: E. coli strain TG-1 (pGEX-2T)
T2 sequence (P20417 1-322): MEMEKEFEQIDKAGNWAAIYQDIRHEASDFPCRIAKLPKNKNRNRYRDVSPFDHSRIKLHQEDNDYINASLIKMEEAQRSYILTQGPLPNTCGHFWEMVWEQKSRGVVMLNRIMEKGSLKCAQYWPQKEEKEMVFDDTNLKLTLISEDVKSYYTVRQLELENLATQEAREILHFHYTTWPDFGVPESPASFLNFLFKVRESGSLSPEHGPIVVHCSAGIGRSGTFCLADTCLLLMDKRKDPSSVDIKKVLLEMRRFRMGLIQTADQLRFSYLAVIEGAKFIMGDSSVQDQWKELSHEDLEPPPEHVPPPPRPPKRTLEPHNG
Outline: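 Thrombin-cleaved rat PTP1 residues 1-322 (35 ng/ml) with 1 mM pNPP in 50 mM Hepes pH 7.2, NaCl, EDTA, DTT, BSA at room temperature. A405 rate followed 60 min. Compounds added as 10 mM solutions; percent inhibition relative to plate DMSO controls, 1 mM orthovanadate as full-inhibition control.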

[1] = Table 1, read-out: PTP1 Inhib % Inhib
[2] = Table 2, read-out: PTP1 Inhib PTP1N. % Inhib

SMILES	inhibition at 1 µM (human PTP1B; Conc 1 uM) [%]	inhibition at 10 µM (human PTP1B; Conc 10 uM) [%]	inhibition at 100 µM (human PTP1B; Conc 100 uM) [%]	further results
CCCCCNC(=O)C(Cc1ccc(OC(COO)COO)cc1)NC(=O)C(Cc1ccccc1)NS(=O)OCc1ccccc1 (stereo not shown)	4	16	62	
CCCCCNC(=O)C(Cc1ccc(OCCOO)c(COO)c1)NC(=O)C(Cc1ccccc1)NC(=O)Cc1ccc(OC)cc1 (stereo not shown)	46	87	97	
CCCCCNC(=O)C(Cc1ccc(OC(COO)COO)cc1)NC(=O)C(CSCc1ccccc1)NC(=O)OC(C)(C)C (stereo not shown)	2	14	75	PTP1B Inhib PTP1B. % Inhib (human PTP1B; Conc 1 uM): 3%; PTP1B Inhib PTP1B. % Inhib (human PTP1B; Conc 10 uM): 16%; PTP1B Inhib PTP1B. % Inhib (human PTP1B; Conc 100 uM): 83%
CCCCCNC(=O)C(Cc1ccc(OC(COO)COO)cc1)NC(=O)C(CCCCNC(=O)OCc1ccccc1)NC(=O)OC(C)(C)C (stereo not shown)	6	28	79	
CCCCCNC(=O)C(Cc1ccc(OCCOO)c(COO)c1)NC(=O)C(Cc1ccccc1)NC(=O)Cc1c[nH]c2ccccc12 (stereo not shown)	47	88	98	
CCCCCNC(=O)C(Cc1ccc(OCCOO)c(COO)c1)NC(=O)C(Cc1ccccc1)NC(=O)Cc1ccc(C(F)(F)F)cc1 (stereo not shown)	39	85	98	
CCCCCNC(=O)C(Cc1ccc(OC(COO)COO)cc1)NC(=O)C(Cc1ccccc1)NC(=O)CCN(CC)CC (stereo not shown)	12	54	92	
CC(C)(C)OC(=O)N[C@@H](Cc1ccccc1)C(=O)N[C@@H](Cc1ccc(OCC(=O)O)c(C(=O)O)c1)C(=O)NCCCCc1ccccc1 [drawing 221]	64	93	98	
CCCCCNC(=O)C(Cc1ccc(OC(COO)COO)cc1)NC(=O)C(Cc1ccccc1)NS(=O)OC (stereo not shown)	9	40	86	
CCCCCNC(=O)C(Cc1ccc(OCCOO)c(COO)c1)NC(=O)C(Cc1ccccc1)NC(=O)Cc1ccc(O)cc1 (stereo not shown)	46	88	98	
CCCCCNC(=O)C(Cc1ccc(OC(COO)COO)cc1)NC(=O)N(Cc1cccc(C(=O)O)c1)Cc1cccc(C(F)(F)F)c1 (stereo not shown)	3	9	58	
CCCCCNC(=O)C(Cc1ccc(OC(COO)COO)cc1)NC(=O)C(Cc1ccc2ccccc2c1)NC(=O)OC(C)(C)C (stereo not shown)		29	93	PTP1B Inhib PTP1B. % Inhib (human PTP1B; Conc 1 uM): 1% and 3%; PTP1B Inhib PTP1B. % Inhib (human PTP1B; Conc 100 uM): 90%
CCCCCNC(=O)C(Cc1ccc(OCCOO)c(COO)c1)NC(=O)CCc1ccccc1 (stereo not shown)	4	15	60	
CCCCCNC(=O)C(Cc1ccc(OCCOO)c(COO)c1)NC(=O)C(Cc1ccccc1)NC(=O)CCCc1ccccc1 (stereo not shown)	19	70	96	
CCCCCNC(=O)C(Cc1ccc(OCCOO)c(COO)c1)NC(=O)C(Cc1ccccc1)NC(=O)OC(C)(C)C (stereo not shown) [drawing 189]				PTP1B Inhib PTP1B. % Inhib (human PTP1B; Conc 1 uM): 2%; PTP1B Inhib PTP1B. % Inhib (human PTP1B; Conc 10 uM): 19%; PTP1B Inhib PTP1B. % Inhib (human PTP1B; Conc 100 uM): 69%
CCCCCNC(=O)[C@H](Cc1ccc(OCC(=O)OC)c(C(=O)O)c1)NC(=O)[C@H](Cc1ccccc1)NC(=O)OC(C)(C)C	3	5	25	
CCCCCNC(=O)C(Cc1ccc(OC(COO)COO)cc1)NC(=O)C(Cc1ccc(O)cc1)NC(=O)OC(C)(C)C (stereo not shown)	10	50	90	
CCCCCNC(=O)[C@H](Cc1ccc(OCC(=O)O)c(C(=O)O)c1)NC(=O)C(Cc1ccccc1)NC(=O)CSc1nnc[nH]1 (stereo partly shown)	36	82	96	
O=C(O)CCC(=O)N[C@@H](Cc1ccc(OC(C(=O)O)C(=O)O)cc1)C(=O)NCC1CCCCC1				inhibition at 1 µM (rat PTP1; [1]): 0%; inhibition at 10 µM (rat PTP1; [1]): 21%; inhibition at 100 µM (rat PTP1; [1]): 73%
CCCCCNC(=O)[C@H](Cc1ccc(OC(C(=O)O)C(=O)O)cc1)NC(=O)C1C(C(=O)O)[C@@H]2CC[C@@H]1C2 (stereo partly shown)				inhibition at 1 µM (rat PTP1; [1]): 0%; inhibition at 10 µM (rat PTP1; [1]): 4%; inhibition at 100 µM (rat PTP1; [1]): 37%
O=C(O)CCC(=O)NC(Cc1ccc(OC(COO)COO)cc1)C(=O)NCc1ccc2c(c1)OCO2 (stereo not shown)				inhibition at 1 µM (rat PTP1; [1]): 12%; inhibition at 10 µM (rat PTP1; [1]): 24%; inhibition at 100 µM (rat PTP1; [1]): 63%
CCCCCNC(=O)C(Cc1ccc(OC(COO)COO)cc1)NC(=O)C(Cc1ccc(C(=O)c2ccccc2)cc1)NC(=O)CCC(=O)O (stereo not shown) [drawing 139]				inhibition at 1 µM (rat PTP1; [2]): 4%; inhibition at 10 µM (rat PTP1; [2]): 13%; inhibition at 100 µM (rat PTP1; [2]): 54%
[Na+].[Na+].[Na+].[O]=[V]([O-])([O-])[O-] [sodium orthovanadate, reference compound]				inhibits PTP1-catalyzed hydrolysis of pNPP (rat PTP1; 1 mM, control wells on each plate): completely

Continued, in another order:

inhibition at 1 µM (human PTP1B; Conc 1 uM) [%]	inhibition at 10 µM (human PTP1B; Conc 10 uM) [%]	inhibition at 100 µM (human PTP1B; Conc 100 uM) [%]	SMILES	further results
3	6	29	CCCCCNC(=O)[C@H](Cc1ccc(N(CC(=O)O)CC(=O)O)cc1)NC(=O)[C@H](Cc1ccccc1)NC(=O)OC(C)(C)C	
2	8	44	CCCCCNC(=O)[C@H](Cc1ccc(OC(C(=O)O)C(=O)O)cc1)NC(=O)C(Cc1ccccc1)NC(=O)OC(C)(C)C (stereo partly shown)	
7	21	67	CCCCCNC(=O)C(Cc1ccc(OC(COO)COO)cc1)NC(=O)C(CC[S+](C)[O-])NC(=O)OC(C)(C)C (stereo not shown)	
5	25	74	CCCCCNC(=O)C(Cc1ccc(OC(COO)COO)cc1)NC(=O)C(CCSC)NC(=O)OC(C)(C)C (stereo not shown)	PTP1B Inhib PTP1B. % Inhib (human PTP1B; Conc 10 uM): 30%; PTP1B Inhib PTP1B. % Inhib (human PTP1B; Conc 100 uM): 82%
24	71	94	CCCCCNC(=O)[C@H](Cc1ccc(OCC(=O)O)c(C(=O)O)c1)NC(=O)C(Cc1ccccc1)N1CCCC1=O (stereo partly shown)	
5	13	54	CCCCCNC(=O)[C@H](Cc1ccc(OCC(=O)O)c(C(=O)NO)c1)NC(=O)[C@H](Cc1ccccc1)NC(=O)OC(C)(C)C	
9	40	85	CCCCCNC(=O)C(Cc1ccc(OC(COO)COO)cc1)NC(=O)C(CC(N)=O)NC(=O)OC(C)(C)C (stereo not shown)	
9	15	48	CCCCCNC(=O)C(Cc1ccc(OC(COO)C(=O)O)cc1)C(=O)NCCC(=O)O (stereo not shown)	
17	63	94	CCCCCNC(=O)C(Cc1ccc(OC(COO)COO)cc1)NC(=O)Nc1cccc(C(=O)O)c1 (stereo not shown)	
9	40	86	CCCCCNC(=O)C(Cc1ccc(OC(COO)COO)cc1)NC(=O)C(Cc1ccccc1)NC(=O)NC(C)(C)C (stereo not shown)	
